Reference: patent US20110053953A1, “AZA-Isoindolones and Their Use as Metabotropic Glutamate Receptor Potentiators - 613” (priority 2007, published 2011)

target: T1, human mGluR2 (Homo sapiens, UniProt Q14416); experiment: mGluR2 potentiator functional assays (FLIPR calcium mobilization or [35S]-GTPγS binding; not stated which); format: cell-based; settings: active in assays described herein; allosteric activator (potentiator) activity at mGluR2, assay not specified
T1 construct: If the GTPgammaS assay was used: nothing is fused
Text: The pharmacological properties of the compounds of the invention can be analyzed using standard assays for functional activity. Examples of glutamate receptor assays are well known in the art as described in, for example, Aramori et al., 1992, Neuron, 8:757; Tanabe et al., 1992, Neuron, 8:169; Miller et al., 1995, J. Neuroscience, 15:6103; Balazs, et al., 1997, J. Neurochemistry, 1997, 69:151. The methodology described in these publications is incorporated herein by reference. Conveniently, the compounds of the invention can be studied by means of an assay that measures the mobilization of intracellular calcium, [Ca^2+]i in cells expressing mGluR2.
Fluorometric Imaging Plate Reader (FLIPR) analysis was used to detect allosteric activators of mGluR2 via calcium mobilization. A clonal HEK 293 cell line expressing a chimeric mGluR2/CaR construct comprising the extracellular and transmembrane domains of human mGluR2 and the intracellular domain of the human calcium receptor, fused to the promiscuous chimeric protein G[…]qi5 was used. […]
FLIPR experiments were done using a laser setting of 0.8 W and a 0.4 second CCD camera shutter speed. […] An addition of test compound (0.01 μM to 30 μM in duplicate) was made after 10 seconds of baseline fluorescent readings were recorded on FLIPR. Fluorescent signals were then recorded for an additional 75 seconds at which point a second addition of DCG-IV (0.2 μM) was made and fluorescent signals were recorded for an additional 65 seconds. Fluorescent signals were measured as the peak height of the response within the sample period. Data was analyzed using Assay Explorer, and EC50 and Emax values (relative to maximum DCG-IV effect) were calculated using a four parameter logistic equation.
A [^35S]-GTPγS binding assay was used to functionally assay mGluR2 receptor activation. The allosteric activator activity of compounds at the human mGluR2 receptor were measured using a [^35S]-GTPγS binding assay with membranes prepared from CHO cells which stably express the human mGluR2. […]

T1 sequence (Q14416 19-819 limits assumed): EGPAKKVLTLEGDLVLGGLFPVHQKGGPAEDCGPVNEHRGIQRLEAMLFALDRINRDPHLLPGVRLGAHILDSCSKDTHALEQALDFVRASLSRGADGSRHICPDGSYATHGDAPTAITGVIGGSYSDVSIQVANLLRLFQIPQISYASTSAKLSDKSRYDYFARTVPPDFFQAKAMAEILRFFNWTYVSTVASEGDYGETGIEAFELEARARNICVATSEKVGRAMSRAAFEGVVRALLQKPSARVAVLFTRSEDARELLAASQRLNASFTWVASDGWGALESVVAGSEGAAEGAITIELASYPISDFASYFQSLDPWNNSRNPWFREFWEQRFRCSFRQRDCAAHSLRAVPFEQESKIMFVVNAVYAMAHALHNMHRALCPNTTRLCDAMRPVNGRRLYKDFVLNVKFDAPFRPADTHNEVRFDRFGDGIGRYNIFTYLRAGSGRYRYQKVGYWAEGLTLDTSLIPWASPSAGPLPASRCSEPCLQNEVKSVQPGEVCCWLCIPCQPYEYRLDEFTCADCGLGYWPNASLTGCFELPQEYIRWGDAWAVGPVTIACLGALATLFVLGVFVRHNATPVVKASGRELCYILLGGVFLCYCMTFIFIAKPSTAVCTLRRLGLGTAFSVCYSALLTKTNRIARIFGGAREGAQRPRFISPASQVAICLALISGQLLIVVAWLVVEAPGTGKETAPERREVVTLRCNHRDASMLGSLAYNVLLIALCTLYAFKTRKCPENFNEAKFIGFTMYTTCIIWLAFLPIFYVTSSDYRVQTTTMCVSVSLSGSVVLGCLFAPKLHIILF

Compound	EC50
Cc1nc(-c2cccc(N(S(C)(=O)=O)S(C)(=O)=O)c2)cc2c1C(=O)N(Cc1ccc(OC(F)(F)F)cc1)C2 [Compound 9, 6-(3-dimethylsulphanomidephenyl)-4-methyl-2-[4-(trifluoromethoxy)benzyl]-1,2-dihydro-3H-pyrrolo[3,4-c]pyridin-3-one]	160 nM
Cc1nc(-c2cccc(NS(C)(=O)=O)c2)cc2c1C(=O)N(Cc1ccc(OC(F)(F)F)cc1)C2 [Compound 13, 6-(3-methylsulphanomidephenyl)-4-methyl-2-[4-(trifluoromethoxy)benzyl]-1,2-dihydro-3H-pyrrolo[3,4-c]pyridin-3-one]	1330 nM
Cc1nc(-c2cccc(NC=O)c2)cc2c1C(=O)N(CC1CC1)C2 [Compound 20, {3-[2-(cyclopropylmethyl)-4-methyl-3-oxo-2,3-dihydro-1H-pyrrolo[3,4-c]pyridin-6-yl]phenyl}formamide]	670 nM
